Reference: the supplement of paper PMC9386025

How the values were obtained:
Experiment in all cases: drug sensitivity score (DSS) (DSS (dimensionless)); higher = more sensitive (stronger drug response)
[1] = tested on: FIMM-PDC1 (patient-derived ovarian cancer cells); settings: genetic perturbation: none (patient-derived cell culture)
How it was run: (§1)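 Cells, either patient-derived cultures or ovarian cancer cell lines given 100 ng/ml doxycycline for no less than three days to induce shRNA, went into 384-well plates at 1 000 – 1 500 per well over drugs pre-plated in five concentrations across a 10,000-fold range. The plates were held for three days at 37 °C with 5.0 % CO2. Cell viability was then taken from CellTiter-Glo luminescence on a PHERAstar FS. For each drug, a drug sensitivity score from its dose-response curve was obtained by a method described earlier.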

[2] = tested on: FIMM-PDC3 (patient-derived ovarian cancer cells); settings: genetic perturbation: none (patient-derived cell culture)
How it was run: as §1

[3] = tested on: FIMM-PDC7 (patient-derived ovarian cancer cells); settings: genetic perturbation: none (patient-derived cell culture)
How it was run: as §1

[4] = tested on: FIMM-PDC5 (patient-derived ovarian cancer cells); settings: genetic perturbation: none (patient-derived cell culture)
How it was run: as §1

[5] = tested on: JHOS2
How it was run: as §1

[6] = tested on: Kuramochi
How it was run: as §1

[7] = tested on: FIMM-PDC2 (patient-derived ovarian cancer cells); settings: genetic perturbation: none (patient-derived cell culture)
How it was run: as §1

[8] = tested on: FIMM-PDC6 (patient-derived ovarian cancer cells); settings: genetic perturbation: none (patient-derived cell culture)
How it was run: as §1

[9] = tested on: OVSAHO
How it was run: as §1

[10] = tested on: FIMM-PDC4 (patient-derived ovarian cancer cells); settings: genetic perturbation: none (patient-derived cell culture)
How it was run: as §1

[11] = genetic perturbation: DOX-induced PTK7 shRNA knockdown
[12] = genetic perturbation: DOX-induced control shRNA

Compound: CC1(C)OCCn2c1nc1c(N3CCOCC3)nc(-c3cnc(N)nc3)nc12 [GDC-0084]
- drug sensitivity score [1]: 7.65
- drug sensitivity score [2]: 7.9
- drug sensitivity score [3]: 14.2
- drug sensitivity score [4]: 17
- drug sensitivity score [5, 11]: 7
- drug sensitivity score [5, 12]: 8.5
- drug sensitivity score [6, 11]: 10.2
- drug sensitivity score [6, 12]: 6.3
- drug sensitivity score [7]: 10.3
- drug sensitivity score [8]: 13.3
- drug sensitivity score [9, 11]: 10.2
- drug sensitivity score [9, 12]: 9.7
- drug sensitivity score [10]: 13.1

Compound: CC(C)[C@@H](CS(=O)(=O)C(C)C)N1C(=O)[C@@](C)(CC(=O)O)C[C@H](c2cccc(Cl)c2)[C@H]1c1ccc(Cl)cc1 [AMG-232]
- drug sensitivity score [1]: < 0
- drug sensitivity score [2]: < 0
- drug sensitivity score [3]: 15
- drug sensitivity score [4]: 20.3
- drug sensitivity score [5, 11]: < 0
- drug sensitivity score [5, 12]: < 0
- drug sensitivity score [6, 11]: < 0
- drug sensitivity score [6, 12]: < 0
- drug sensitivity score [7]: < 0
- drug sensitivity score [8]: 14.2
- drug sensitivity score [9, 11]: < 0
- drug sensitivity score [9, 12]: < 0
- drug sensitivity score [10]: 7.1

Compound: C=CCn1c(=O)c2cnc(Nc3ccc(N4CCN(C)CC4)cc3)nc2n1-c1cccc(C(C)(C)O)n1 [AZD1775]
- drug sensitivity score [1]: 21.6
- drug sensitivity score [2]: 17
- drug sensitivity score [3]: 8.8
- drug sensitivity score [4]: 19
- drug sensitivity score [5, 11]: 8.6
- drug sensitivity score [5, 12]: 8.3
- drug sensitivity score [6, 11]: 10.3
- drug sensitivity score [6, 12]: 9.9
- drug sensitivity score [7]: 12.9
- drug sensitivity score [8]: 4
- drug sensitivity score [9, 11]: 16.3
- drug sensitivity score [9, 12]: 9.6
- drug sensitivity score [10]: 10.4

Compound: Cc1sc2c(c1C)C(c1ccc(Cl)cc1)=N[C@@H](CC(=O)NCCCCNC(=O)COc1cccc3c1C(=O)N(C1CCC(=O)NC1=O)C3=O)c1nnc(C)n1-2 (some centres not stated) [dBET1]
- drug sensitivity score [1]: 0.1
- drug sensitivity score [2]: 2.7
- drug sensitivity score [3]: 5.8
- drug sensitivity score [4]: 11
- drug sensitivity score [5, 11]: 3.2
- drug sensitivity score [5, 12]: 5.5
- drug sensitivity score [6, 11]: 3.9
- drug sensitivity score [6, 12]: 4.4
- drug sensitivity score [7]: 2.6
- drug sensitivity score [8]: 7.5
- drug sensitivity score [9, 11]: 4.3
- drug sensitivity score [9, 12]: 3.4
- drug sensitivity score [10]: 8.1

Compound: C[C@@H]1COCCN1c1cc(C2([S@](C)(=N)=O)CC2)nc(-c2cc[nH]c3nccc2-3)n1 [AZD6738]
- drug sensitivity score [1]: 12.7
- drug sensitivity score [2]: 13
- drug sensitivity score [3]: 8.6
- drug sensitivity score [4]: 10.4
- drug sensitivity score [5, 11]: 6
- drug sensitivity score [5, 12]: 3.6
- drug sensitivity score [6, 11]: 6.5
- drug sensitivity score [6, 12]: 4.5
- drug sensitivity score [7]: 9.5
- drug sensitivity score [8]: 11
- drug sensitivity score [9, 11]: 6.2
- drug sensitivity score [9, 12]: 5.5
- drug sensitivity score [10]: 8.7

Compound: CN[C@@H](C)C(=O)N[C@H]1CN(C(=O)CC(C)C)CC[C@H]2CC[C@@H](C(=O)NC(c3ccccc3)c3ccccc3)N2C1=O [AT-406]
- drug sensitivity score [1]: 7.9
- drug sensitivity score [2]: 10.8
- drug sensitivity score [3]: 0.6
- drug sensitivity score [4]: 1.5
- drug sensitivity score [5, 11]: 16.5
- drug sensitivity score [5, 12]: 10.2
- drug sensitivity score [6, 11]: 1.1
- drug sensitivity score [6, 12]: 0.3
- drug sensitivity score [7]: 10.5
- drug sensitivity score [8]: 5.3
- drug sensitivity score [9, 11]: 4.3
- drug sensitivity score [9, 12]: < 0
- drug sensitivity score [10]: 0.9

Compound: O=C1CCc2c(Oc3ccc4c(c3)[C@@H]3[C@H](O4)[C@H]3c3nc4cc(C(F)(F)F)ccc4[nH]3)ccnc2N1 [BGB-283]
- drug sensitivity score [1]: 1.05
- drug sensitivity score [2]: 4.1
- drug sensitivity score [3]: 5.8
- drug sensitivity score [4]: 10.4
- drug sensitivity score [5, 11]: 1.8
- drug sensitivity score [5, 12]: 6.4
- drug sensitivity score [6, 11]: 3.6
- drug sensitivity score [6, 12]: 1.7
- drug sensitivity score [7]: 3.4
- drug sensitivity score [8]: 7.3
- drug sensitivity score [9, 11]: 2.4
- drug sensitivity score [9, 12]: 4
- drug sensitivity score [10]: 7.7

Compound: C=CC(=O)Nc1cc2c(Nc3ccc(F)c(Cl)c3)ncnc2cc1OCCCN1CCOCC1 [Canertinib]
- drug sensitivity score [1]: 7.4
- drug sensitivity score [2]: 15.7
- drug sensitivity score [3]: 12.1
- drug sensitivity score [4]: 27.5
- drug sensitivity score [5, 11]: 8.1
- drug sensitivity score [5, 12]: 7.4
- drug sensitivity score [6, 11]: 8.9
- drug sensitivity score [6, 12]: 8.6
- drug sensitivity score [8]: 20.8
- drug sensitivity score [9, 11]: 8.2
- drug sensitivity score [9, 12]: 7.6
- drug sensitivity score [10]: 20.4

Compound: Nc1ncnc2c1nc(N)n2[C@@H]1O[C@H](CO)[C@@H](O)[C@H]1O [8-amino-adenosine]
- drug sensitivity score [1]: 17.4
- drug sensitivity score [2]: 19.1
- drug sensitivity score [3]: 17.8
- drug sensitivity score [4]: 27.9
- drug sensitivity score [5, 11]: 23.4
- drug sensitivity score [5, 12]: 19.8
- drug sensitivity score [6, 11]: 23.3
- drug sensitivity score [6, 12]: 20.1
- drug sensitivity score [8]: 24.8
- drug sensitivity score [9, 11]: 26.2
- drug sensitivity score [9, 12]: 21.1
- drug sensitivity score [10]: 22.7

Compound: Nc1ccccc1NC(=O)c1ccc(CNC(=O)OCc2cccnc2)cc1 [Entinostat]
- drug sensitivity score [1]: 7.1
- drug sensitivity score [2]: 9
- drug sensitivity score [3]: 6.5
- drug sensitivity score [4]: 8.2
- drug sensitivity score [5, 11]: 4.5
- drug sensitivity score [5, 12]: 2.5
- drug sensitivity score [6, 11]: 8.05
- drug sensitivity score [6, 12]: 2.3
- drug sensitivity score [8]: 6.6
- drug sensitivity score [9, 11]: 8.5
- drug sensitivity score [9, 12]: 4.6
- drug sensitivity score [10]: 4.5

Compound: CO[C@H]1CC[C@H](N2C(=O)CNc3ncc(-c4ccc(C(C)(C)O)nc4)nc32)CC1 [CC-223]
- drug sensitivity score [1]: 3.2
- drug sensitivity score [2]: 3.5
- drug sensitivity score [3]: 9.5
- drug sensitivity score [4]: 10.3
- drug sensitivity score [5, 11]: 3.3
- drug sensitivity score [5, 12]: 3.3
- drug sensitivity score [6, 11]: 5.1
- drug sensitivity score [6, 12]: 4.6
- drug sensitivity score [7]: 4.7
- drug sensitivity score [8]: 5.3
- drug sensitivity score [9, 11]: 6.6
- drug sensitivity score [9, 12]: 4.9
- drug sensitivity score [10]: 5.9

Compound: Oc1nc(-c2ccc(C(F)(F)F)cc2)nc2c1CSCC2 [XAV-939]
- drug sensitivity score [1]: 1.1
- drug sensitivity score [2]: 1.5
- drug sensitivity score [3]: 10.8
- drug sensitivity score [4]: 6.3
- drug sensitivity score [5, 11]: < 0
- drug sensitivity score [5, 12]: 0.7
- drug sensitivity score [6, 11]: 0.35
- drug sensitivity score [6, 12]: 0.1
- drug sensitivity score [8]: 4.1
- drug sensitivity score [9, 11]: 2.1
- drug sensitivity score [9, 12]: 3
- drug sensitivity score [10]: 1.6

Compound: COc1ccccc1S(=O)(=O)Nc1ccc2c(c1)CN(C)C(=O)N2 [PFI-1]
- drug sensitivity score [1]: 1.2
- drug sensitivity score [2]: 1.6
- drug sensitivity score [3]: 1.3
- drug sensitivity score [4]: 4.9
- drug sensitivity score [5, 11]: 2.1
- drug sensitivity score [5, 12]: 3.4
- drug sensitivity score [6, 11]: 7.65
- drug sensitivity score [6, 12]: 5
- drug sensitivity score [8]: 1.3
- drug sensitivity score [9, 11]: 4.4
- drug sensitivity score [9, 12]: 8.4
- drug sensitivity score [10]: 0.9

Compound: C=CC(=O)Nc1cc(Nc2nccc(-c3cn(C)c4ccccc34)n2)c(OC)cc1N(C)CCN(C)C [Osimertinib]
- drug sensitivity score [1]: 4
- drug sensitivity score [2]: 9.5
- drug sensitivity score [3]: 9.6
- drug sensitivity score [4]: 14.4
- drug sensitivity score [5, 11]: 4.1
- drug sensitivity score [5, 12]: 4.1
- drug sensitivity score [6, 11]: 4.8
- drug sensitivity score [6, 12]: 4.3
- drug sensitivity score [8]: 12.5
- drug sensitivity score [9, 11]: 5.9
- drug sensitivity score [9, 12]: 3.3
- drug sensitivity score [10]: 11

Compound: O=C(Nc1cccc(Nc2ncc(Br)c(NCCc3cnc[nH]3)n2)c1)N1CCCC1 [BX-912]
- drug sensitivity score [1]: 2.85
- drug sensitivity score [2]: 1.2
- drug sensitivity score [3]: 9.2
- drug sensitivity score [4]: 6.9
- drug sensitivity score [5, 11]: 5.5
- drug sensitivity score [5, 12]: 2.4
- drug sensitivity score [6, 11]: 2.35
- drug sensitivity score [6, 12]: 3.7
- drug sensitivity score [8]: 2.2
- drug sensitivity score [9, 11]: 3.8
- drug sensitivity score [9, 12]: 2.2
- drug sensitivity score [10]: 3.9

Compound: CC(C)NC[C@@H](C(=O)N1CCN(c2ncnc3c2[C@H](C)C[C@H]3O)CC1)c1ccc(Cl)cc1 [Ipatasertib]
- drug sensitivity score [1]: 4.2
- drug sensitivity score [2]: 0.8
- drug sensitivity score [3]: 7.5
- drug sensitivity score [4]: 10.3
- drug sensitivity score [5, 11]: < 0
- drug sensitivity score [5, 12]: 1.3
- drug sensitivity score [6, 11]: 0.35
- drug sensitivity score [6, 12]: < 0
- drug sensitivity score [8]: 5.5
- drug sensitivity score [9, 11]: < 0
- drug sensitivity score [9, 12]: 4.6
- drug sensitivity score [10]: 5.9

Compound: O=C(Nc1ccncc1)C(=O)c1cn(Cc2ccc(Cl)cc2)c2ccccc12 [Indibulin]
- drug sensitivity score [1]: 8.6
- drug sensitivity score [2]: 6
- drug sensitivity score [3]: 4.2
- drug sensitivity score [4]: 13.9
- drug sensitivity score [5, 11]: 6.4
- drug sensitivity score [5, 12]: 4.5
- drug sensitivity score [6, 11]: 5.8
- drug sensitivity score [6, 12]: < 0
- drug sensitivity score [8]: 6.5
- drug sensitivity score [9, 11]: 6.9
- drug sensitivity score [9, 12]: 2.2
- drug sensitivity score [10]: 8.8
